# Measurements reported in US9113629B2, “4-amino-6-(4-substituted-phenyl)-picolinates and 6-amino-2-(4-substituted-phenyl)-pyrimidine-4-carboxylates and their use as herbicides” (DOW AGROSCIENCES LLC, priority 2013, dated 2015).
# Where two headings read alike, the source gives them in different places.
# Legend:
# [1] = tested on: STEME: common chickweed (Stellaria media); assay: Post-emergent Test III, herbicidal activity in wheat and barley; format: in vivo
# Procedure, shortened: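 Plants at the second to third true-leaf stage, grown in a greenhouse at about 18/17 °C with a 14 h photoperiod, were sprayed post-emergence at 187 L/ha with the high rate and ½× to 1/16× serial dilutions in an acetone/DMSO/crop-oil/surfactant carrier. Injury was rated visually at 21 d on a 0–100% scale, and GR20–GR90 were derived by probit analysis.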
# [2] = tested on: test plant species in Direct Seeded Rice; assay: Postemergence herbicidal activity in direct seeded rice (Table 13); format: in vivo; conditions: for pest or weed control at 35 g/ha / pest or weed control at 70 g/ha: post-emergence, 504 h; for pest or weed control at 35 g/ha: 35 g ai/ha; for pest or weed control at 70 g/ha: 70 g ai/ha
# Procedure, shortened: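 Greenhouse-grown plants at the second or third true leaf stage were sprayed postemergence at 187 L/ha with compound in acetone/DMSO (final 16.2%/0.5%) plus aqueous Agri-dex crop oil concentrate; controls got solvent blank. Injury was rated visually 0–100% after 20-22 days, and GR20, GR50, GR80 and GR90 derived by probit analysis.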
# [3] = BRAPP: broadleaf signalgrass, Brachiaria platyphylla, probit analysis
# [4] = CYPSS: sedge (Cyperus difformis, esculentus, iria), probit analysis
# [5] = ECHSS: barnyardgrass (Echinochloa crus-galli), junglerice (Echinochloa colonum), probit analysis
# [6] = LEFSS: sprangletop (Leptochloa chinensis, Leptochloa dubia), probit analysis
# [7] = SCPJU: Japanese bulrush, Scirpus juncoides, probit analysis
# [8] = SEBEX: hemp sesbania, Sesbania exaltata, probit analysis
# [9] = BRAPP: broadleaf signalgrass, Brachiaria platyphylla, read-out: Visual Growth Reduction (%) 21 Days After Application BRAPP
# [10] = CYPSS: sedge (Cyperus difformis, esculentus, iria), read-out: Visual Growth Reduction (%) 21 Days After Application CYPSS
# [11] = ECHSS: barnyardgrass (Echinochloa crus-galli), junglerice (Echinochloa colonum), read-out: Visual Growth Reduction (%) 21 Days After Application ECHSS
# [12] = LEFSS: sprangletop (Leptochloa chinensis, Leptochloa dubia), read-out: Visual Growth Reduction (%) 21 Days After Application LEFSS
# [13] = ORYSS: Oryza sativa, read-out: Visual Growth Reduction (%) 21 Days After Application ORYSS
# [14] = SCPJU: Japanese bulrush, Scirpus juncoides, read-out: Visual Growth Reduction (%) 21 Days After Application SCPJU
# [15] = SEBEX: hemp sesbania, Sesbania exaltata, read-out: Visual Growth Reduction (%) 21 Days After Application SEBEX
structure (smiles),measurement,setting,value
COC(=O)c1nc(-c2ccc(Cl)c(F)c2)c(F)c(N)c1Cl [Compound 216],pest or weed control at 35 g/ha,"[1]; Stellaria media, post-emergence, 504 h, 35 g ai/ha, read-out: Visual Growth Reduction (%) 21 Days After Application STEME",30 to 44%
same,pest or weed control at 70 g/ha,"[1]; Stellaria media, post-emergence, 504 h, 70 g ai/ha, read-out: Visual Growth Reduction (%) 21 Days After Application STEME",30 to 44%
same,pest or weed control at 140 g/ha,"[1]; Stellaria media, post-emergence, 504 h, 140 g ai/ha, read-out: Visual Growth Reduction (%) 21 Days After Application STEME",75 to 84%
same,GR50 STEME,"[1]; probit analysis, dose for growth reduction of 50 percent, 21 days after application",52 g ai/ha
same,GR80 STEME,"[1]; probit analysis, dose for growth reduction of 80 percent, 21 days after application",>140 g ai/ha
same,GR50 BRAPP,[2]; [3],8 g ai/ha
same,GR80 BRAPP,[2]; [3],27 g ai/ha
same,GR50 CYPSS,[2]; [4],10 g ai/ha
same,GR80 CYPSS,[2]; [4],70 g ai/ha
same,GR50 ECHSS,[2]; [5],4 g ai/ha
same,GR80 ECHSS,[2]; [5],15 g ai/ha
same,GR50 LEFSS,[2]; [6],8 g ai/ha
same,GR80 LEFSS,[2]; [6],23 g ai/ha
same,GR20 ORYSS,"[2]; ORYSS: Oryza sativa (crop), probit analysis",>70 g ai/ha
same,GR50 SCPJU,[2]; [7],1 g ai/ha
same,GR80 SCPJU,[2]; [7],1 g ai/ha
same,GR50 SEBEX,[2]; [8],1 g ai/ha
same,GR80 SEBEX,[2]; [8],1 g ai/ha
same,pest or weed control at 35 g/ha,[2]; [9],85 to 94%
same,pest or weed control at 70 g/ha,[2]; [9],85 to 94%
same,pest or weed control at 35 g/ha,[2]; [10],85 to 94%
same,pest or weed control at 70 g/ha,[2]; [10],85 to 94%
same,pest or weed control at 35 g/ha,[2]; [11],85 to 94%
same,pest or weed control at 70 g/ha,[2]; [11],95 to 100%
same,pest or weed control at 35 g/ha,[2]; [12],85 to 94%
same,pest or weed control at 70 g/ha,[2]; [12],95 to 100%
same,pest or weed control at 35 g/ha,[2]; [13],0 to 29%
same,pest or weed control at 70 g/ha,[2]; [13],0 to 29%
same,pest or weed control at 35 g/ha,[2]; [14],95 to 100%
same,pest or weed control at 70 g/ha,[2]; [14],95 to 100%
same,pest or weed control at 35 g/ha,[2]; [15],95 to 100%
same,pest or weed control at 70 g/ha,[2]; [15],95 to 100%
